Measurements as given in patent US20090208493A1, “Compounds and methods for the selective inhibition of ABCB1, ABCC1 and ABCG2 transporters and the treatment of cancers, especially drug resistant cancers and high throughput flow cytometry assay to detect selective inhibitors” (STC. UNM, priority 2007, published 2009).
Counter-ions that a name gives are not always drawn. Like-named read-outs stand apart in the source and are kept apart here.

How the values were obtained:
ABCB1 [1] = biological target: T1, ABCB1 (Homo sapiens, UniProt P08183); assay: JC-1 efflux HyperCyt flow cytometry assay (ABCB1 reversal); conditions: for hit in primary screen of Prestwick Chemical Library for ABCB1-mediated JC-1 efflux: final concentration of 5 μM
T1 sequence (P08183 whole entry): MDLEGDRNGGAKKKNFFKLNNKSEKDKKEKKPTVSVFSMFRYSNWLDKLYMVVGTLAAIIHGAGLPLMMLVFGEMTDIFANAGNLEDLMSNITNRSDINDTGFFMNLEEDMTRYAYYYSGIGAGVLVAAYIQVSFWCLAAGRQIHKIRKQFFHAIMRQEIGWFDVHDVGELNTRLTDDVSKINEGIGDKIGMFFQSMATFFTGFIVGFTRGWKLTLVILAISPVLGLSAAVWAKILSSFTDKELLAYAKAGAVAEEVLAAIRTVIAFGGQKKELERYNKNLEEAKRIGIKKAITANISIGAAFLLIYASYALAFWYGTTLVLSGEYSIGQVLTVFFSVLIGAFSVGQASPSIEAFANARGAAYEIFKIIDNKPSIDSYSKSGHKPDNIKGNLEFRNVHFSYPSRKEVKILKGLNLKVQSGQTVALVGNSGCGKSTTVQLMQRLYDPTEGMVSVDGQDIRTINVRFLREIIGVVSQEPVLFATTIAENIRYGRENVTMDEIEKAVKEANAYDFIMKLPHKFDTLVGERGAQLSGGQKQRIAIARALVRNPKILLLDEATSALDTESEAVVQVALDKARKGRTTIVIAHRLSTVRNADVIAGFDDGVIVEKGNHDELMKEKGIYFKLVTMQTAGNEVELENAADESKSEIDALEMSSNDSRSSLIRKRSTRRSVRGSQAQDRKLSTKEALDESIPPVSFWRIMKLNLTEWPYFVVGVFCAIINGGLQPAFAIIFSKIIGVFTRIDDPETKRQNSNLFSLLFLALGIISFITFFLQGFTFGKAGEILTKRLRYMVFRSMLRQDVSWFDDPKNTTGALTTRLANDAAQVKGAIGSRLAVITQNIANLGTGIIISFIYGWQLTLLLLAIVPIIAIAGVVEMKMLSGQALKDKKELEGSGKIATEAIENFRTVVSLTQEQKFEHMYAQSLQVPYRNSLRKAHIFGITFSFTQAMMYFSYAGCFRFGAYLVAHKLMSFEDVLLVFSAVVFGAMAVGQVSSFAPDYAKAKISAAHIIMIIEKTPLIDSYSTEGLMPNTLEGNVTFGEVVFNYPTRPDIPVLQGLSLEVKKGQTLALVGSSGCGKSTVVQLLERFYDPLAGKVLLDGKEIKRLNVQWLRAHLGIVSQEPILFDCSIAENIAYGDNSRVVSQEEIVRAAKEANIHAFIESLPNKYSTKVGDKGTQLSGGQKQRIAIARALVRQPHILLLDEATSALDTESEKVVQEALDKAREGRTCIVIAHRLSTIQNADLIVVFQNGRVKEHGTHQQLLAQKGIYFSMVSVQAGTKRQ

[2] = system: DNR-resistant Jurkat cells; assay: Chemreversal50: sensitisation of DNR-resistant Jurkat cells to 100 nM DNR; type: cell-based, human; conditions: read-out: Chemorev50 (SD), 50% of reversal of chemotherapeutic effect determined in in vitro screen
Protocol: To enable this analysis, a 3-log range of each “hit” compound was added in 2 mL aliquots to a 6 well plate and, over a range of 7 days, total cell number and viability was measured using a hemacytometer and trypan blue staining. Fresh media containing 100 nM DNR was added over the course of the experiment to maintain the cell concentration ≧100,000 cells/mL. […] The differences (if any) between the Chemreversal50 and TD50 gave an approximation of an in vitro “therapeutic index” for each compound.

[3] = system: DNR-resistant Jurkat cells; type: cell-based; conditions: media alone, 7 days
ABCB1 [4] = biological target: T1, ABCB1; assay: JC1 duplex high-throughput flow cytometry assay, ABCB1 (Jurkat-DNR cells); type: cell-based; set-up: endogenous in cells; host or cells: Jurkat cells selected for daunorubicin resistance (Jurkat-DNR); conditions: 384 well plate
Protocol: (§1) Jurkat-DNR cells (ABCB1) were labeled with 0.5 ng/ml FarRed DDAO CellTrace SE (Invitrogen) for 15 min at room temperature, washed twice by centrifugation, then combined with unlabeled IgMXP3 cells (ABCG2) in the assay buffer. The label binds covalently to amine groups in cells and is detected at red fluorescence emission wavelengths of 665±10 nm upon excitation at 635 nm. Final in-well concentration of cells was 3×10^6 cell/ml at a 1:1 ratio of the two cell types.

ABCG2 = biological target: T2, ABCG2 (Homo sapiens, UniProt Q9UNQ0); assay: JC1 duplex high-throughput flow cytometry assay, ABCG2 (IgMXP3 cells); type: cell-based; conditions: 384 well plate
T2 construct: ABCG2-expressing IgMXP3 cells; endogenous in cells; host or cells: IgMXP3 cells (resistant subline of Igrov1)
T2 sequence (Q9UNQ0 1-655): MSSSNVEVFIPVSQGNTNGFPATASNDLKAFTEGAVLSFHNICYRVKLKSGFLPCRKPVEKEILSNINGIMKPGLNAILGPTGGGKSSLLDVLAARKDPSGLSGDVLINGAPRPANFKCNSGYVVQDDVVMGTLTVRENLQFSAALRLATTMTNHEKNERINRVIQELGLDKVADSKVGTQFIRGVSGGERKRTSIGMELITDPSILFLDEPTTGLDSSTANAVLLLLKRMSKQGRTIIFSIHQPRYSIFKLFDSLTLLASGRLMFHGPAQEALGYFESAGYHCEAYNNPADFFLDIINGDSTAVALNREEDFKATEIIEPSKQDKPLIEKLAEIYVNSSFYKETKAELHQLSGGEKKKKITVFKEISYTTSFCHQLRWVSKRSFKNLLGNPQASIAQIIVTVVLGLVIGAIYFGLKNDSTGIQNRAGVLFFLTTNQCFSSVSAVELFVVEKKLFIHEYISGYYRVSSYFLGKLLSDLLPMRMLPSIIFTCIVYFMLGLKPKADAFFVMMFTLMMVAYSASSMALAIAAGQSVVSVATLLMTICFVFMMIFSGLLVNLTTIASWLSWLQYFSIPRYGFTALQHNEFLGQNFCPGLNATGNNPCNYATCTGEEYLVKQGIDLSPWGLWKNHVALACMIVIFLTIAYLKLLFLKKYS
Protocol: as §1

parental Jurkat cells = assay: Chemosensitivity of parental (therapy sensitive) Jurkat cells; type: cell-based; conditions: Homo sapiens
[5] = system: Jurkat DNR resistant cells; assay: Chemosensitivity of DNR-resistant Jurkat cells; type: cell-based, human; conditions: for IC50: Homo sapiens, Jurkat cells with acquired resistance to DNR
ABCB1 [6] = biological target: T1, ABCB1; conditions: 5 μM
[7] = Homo sapiens, 168 h, DNR-resistant Jurkat cells, fixed 100 nM DNR, 7 days, trypan blue viability

Q: For `CC(C)COCC(CN(Cc1ccccc1)c1ccccc1)N1CCCC1` (stereo not shown) [Bepridil HCL, bepridil], which IC50 (ABCB1 [1]) is on record?
A: 7.4 ± 0.95 µM

Q: What about the EC50 [2, 7] of the same compound?
A: 3.3 µM

Q: What does the source list for `Cc1c2ccncc2c(C)c2c1[nH]c1ccccc12` [Ellipticine, ellipticine]?
A: TD50 (SD), 50% toxic dose determined in in vitro screen [3]: 3.8 µM; TD50 (SD), 50% toxic dose determined in in vitro screen ([3]; listed as ellipticine): 2.7 ± 1.56 µM; IC50 (ABCB1 [1]): 0.99 ± 0.014 µM; EC50 ([2]; Homo sapiens, Jurkat, 168 h): 1.8 µM

Q: Which IC50 (ABCB1 [1]) does the source give for `Fc1ccc(C(OCCN2CCN(CCCc3ccccc3)CC2)c2ccc(F)cc2)cc1` [GBR 12909 HCL, GBR 12909] here?
A: 4.6 ± 0.28 µM

Q: And the EC50 [2, 7]?
A: 2.1 µM

Q: For `CC[C@H](c1ccc(O)cc1)[C@@H](CC)c1ccc(O)cc1` [Hexestrol, hexestrol], which IC50 (ABCB1 [1]) is on record?
A: 8.3 ± 3.2 µM

Q: And the EC50 ([2]; Homo sapiens, Jurkat, 168 h)?
A: 12.8 µM

Q: With `CC(=O)N1CCN(c2ccc(OCC3COC(Cn4ccnc4)(c4ccc(Cl)cc4Cl)O3)cc2)CC1` (stereo not shown) [Ketoconazole, ketoconazole] as the compound, how does the EC50 [2, 7] read?
A: 3.7 µM

Q: Which results are given for `CC[C@@H](C(=O)[C@@H](C)[C@@H](O)[C@H](C)CCc1ccc(C)c(O)c1C(=O)O)[C@H]1O[C@](CC)([C@H]2CC[C@](O)(CC)[C@H](C)O2)C[C@@H]1C` [Lasalocid]?
A: JC1 duplex assay response, ABCB1 (ABCB1 [4]): significant assay response for both transporters; JC1 duplex assay response, ABCG2 (ABCG2): significant assay response for both transporters

Q: Which IC50 (ABCB1 [1]) does the source give for `Cc1cccc(C)c1NC(=O)CN1CCN(CCCC(c2ccc(F)cc2)c2ccc(F)cc2)CC1` [Lidoflazine, lidoflazine] here?
A: 5.4 ± 0.55 µM

Q: And the EC50 [2, 7]?
A: 3.1 µM

Q: For `C[C@@H]1C[C@H]2[C@@H]3CCC4=CC(=O)C=C[C@]4(C)[C@@]3(Cl)[C@@H](O)C[C@]2(C)[C@@]1(OC(=O)c1ccco1)C(=O)CCl` [Mometasone Furoate, mometasone furoate], which “TD50 (SD), 50% toxic dose determined in in vitro screen” value [3] is on record?
A: 30.4 µM

Q: What about the “TD50 (SD), 50% toxic dose determined in in vitro screen” value ([3]; listed as mometasone) of the same compound?
A: 24.8 ± 8.0 µM

Q: And the IC50 (ABCB1 [1]; read-out: IC50 (SD), 50% inhibition of drug efflux determined in high-throughput screen, JC-1 efflux, DNR-resistant Jurkat cells)?
A: 0.74 ± 0.13 µM

Q: What about the EC50 ([2]; DNR-resistant Jurkat cells, fixed 100 nM DNR, 7 days, trypan blue viability) of the same compound?
A: 1.4 ± 0.28 µM

Q: Which EC50 [2, 7] does the source give for `COC(=O)C1=C(C)NC(C)=C(C(=O)OCCN(C)Cc2ccccc2)C1c1cccc([N+](=O)[O-])c1` (stereo not shown) [Nicardipine HCL, nicardipine] here?
A: 2.6 µM

Q: How did the IC50 (parental Jurkat cells) turn out when `C[C@]12C=CC(=O)C=C1CC[C@@H]1[C@@H]2[C@@H](O)C[C@@]2(C)[C@H]1CC[C@]2(O)C(=O)CO` [PRED, prednisolone] was run?
A: 0.316 µM

Q: And the “increased resistance of DNR-resistant vs parental Jurkat cells” value (“increased resistance of DNR-resistant” below) [5]?
A: 3 fold

Q: What about the IC50 [5] of the same compound?
A: 1 µM

Q: With `CCCNCC(O)COc1ccccc1C(=O)CCc1ccccc1` (stereo not shown) [Propafenone HCL, propafenone] as the compound, how does the EC50 [2, 7] read?
A: 4.9 ± 1.3 µM

Q: `COC(=O)[C@H]1[C@H]2C[C@@H]3c4[nH]c5cc(OC)ccc5c4CCN3C[C@H]2C[C@@H](OC(=O)/C=C/c2cc(OC)c(OC)c(OC)c2)[C@@H]1OC` [Rescinnamine, rescinnamine] was tested. Which IC50 (ABCB1 [1]) did it give?
A: 1.53 ± 0.5 µM

Q: And the EC50 [2, 7]?
A: 1 µM

Q: `CC[C@]1(O)C[C@H]2CN(CCc3c([nH]c4ccccc34)[C@@](C(=O)OC)(c3cc4c(cc3OC)N(C=O)[C@H]3[C@@](O)(C(=O)OC)[C@H](OC(C)=O)[C@]5(CC)C=CCN6CC[C@]43[C@@H]65)C2)C1` [VCR, Vincristine] was tested. Which IC50 (parental Jurkat cells) did it give?
A: 6.31 µM

Q: What about the “increased resistance of DNR-resistant” value [5] of the same compound?
A: approximately 70 fold

Q: What about the IC50 [5] of the same compound?
A: 316 µM

Q: How did the “hit in primary screen of Prestwick Chemical Library for ABCB1-mediated JC-1 efflux” value (shortened to “hit in primary screen”) (ABCB1 [1]) turn out when `CC[C@H](C)[C@H]1O[C@]2(C=C[C@@H]1C)C[C@@H]1C[C@@H](C/C=C(\C)[C@@H](O[C@H]3C[C@H](OC)[C@@H](O[C@H]4C[C@H](OC)[C@@H](O)[C@H](C)O4)[C@H](C)O3)[C@@H](C)/C=C/C=C3\CO[C@@H]4[C@H](O)C(C)=C[C@@H](C(=O)O1)[C@]34O)O2` [avermectin] was run?
A: inhibiting ABCB1-mediated drug efflux

Q: For `Cc1cc(C2CCCCC2)n(O)c(=O)c1.NCCO` [ciclopirox ethanolamine], which “hit in primary screen” value (ABCB1 [1]) is on record?
A: inhibiting ABCB1-mediated drug efflux

Q: How did the “hit in primary screen” value (ABCB1 [6]) turn out when `CC(=O)O[C@H]1C[C@@]2(C)[C@@H](C[C@@H](O)[C@H]3[C@@]4(C)CC[C@@H](O)[C@@H](C)[C@@H]4CC[C@@]32C)/C1=C(\CCC=C(C)C)C(=O)O` [fusidic acid] was run?
A: inhibiting ABCB1-mediated drug efflux

Q: How did the “hit in primary screen” value (ABCB1 [1]) turn out when `C=C(C)[C@H]1Cc2c(ccc3c2O[C@@H]2COc4cc(OC)c(OC)cc4[C@@H]2C3=O)O1` [rotenone] was run?
A: inhibiting ABCB1-mediated drug efflux

Q: `CCOC(=O)Oc1c(OC)cc(C(=O)O[C@@H]2C[C@@H]3CN4CCc5c([nH]c6cc(OC)ccc56)[C@H]4C[C@@H]3[C@H](C(=O)OC)[C@H]2OC)cc1OC` [syrosingopine] was tested. Which “hit in primary screen” value (ABCB1 [6]) did it give?
A: inhibiting ABCB1-mediated drug efflux

Q: Which “hit in primary screen” value (ABCB1 [1]) does the source give for `COc1c(O[C@@H]2O[C@H](CO)[C@@H](O)[C@H](O)[C@H]2O)cc2c(c1OC)-c1ccc(SC)c(=O)cc1[C@@H](NC(C)=O)CC2` [thiocolchicoside] here?
A: inhibiting ABCB1-mediated drug efflux

Q: For L-asparaginase, which “increased resistance of DNR-resistant” value [5] is on record?
A: no increased resistance

Q: For antimycin, which “hit in primary screen” value (ABCB1 [1]) is on record?
A: inhibiting ABCB1-mediated drug efflux
